Experimental data reported in ChEMBL document CHEMBL5042544, “Discovery of a Potent and Selective ATAD2 Bromodomain Inhibitor with Antiproliferative Activity in Breast Cancer Models” (J Med Chem, 2022).

Assays:
[1] = Distribution coefficient, logD of compound at pH 7.4; assay type: physicochemical; conditions: octanol/water
[2] = molecular target: T1, ATPase family AAA domain-containing protein 2 (Homo sapiens, UniProt Q6PL18); assay: Inhibition of GST-ATAD2 BD (951 to 1132 residues) (unknown origin) expressed in Escherichia coli BL21 (DE3) and biotinylated tetra-acetylated histone H4 peptides as substrate by TR-FRET artifact assay
T1 sequence (Q6PL18 whole entry): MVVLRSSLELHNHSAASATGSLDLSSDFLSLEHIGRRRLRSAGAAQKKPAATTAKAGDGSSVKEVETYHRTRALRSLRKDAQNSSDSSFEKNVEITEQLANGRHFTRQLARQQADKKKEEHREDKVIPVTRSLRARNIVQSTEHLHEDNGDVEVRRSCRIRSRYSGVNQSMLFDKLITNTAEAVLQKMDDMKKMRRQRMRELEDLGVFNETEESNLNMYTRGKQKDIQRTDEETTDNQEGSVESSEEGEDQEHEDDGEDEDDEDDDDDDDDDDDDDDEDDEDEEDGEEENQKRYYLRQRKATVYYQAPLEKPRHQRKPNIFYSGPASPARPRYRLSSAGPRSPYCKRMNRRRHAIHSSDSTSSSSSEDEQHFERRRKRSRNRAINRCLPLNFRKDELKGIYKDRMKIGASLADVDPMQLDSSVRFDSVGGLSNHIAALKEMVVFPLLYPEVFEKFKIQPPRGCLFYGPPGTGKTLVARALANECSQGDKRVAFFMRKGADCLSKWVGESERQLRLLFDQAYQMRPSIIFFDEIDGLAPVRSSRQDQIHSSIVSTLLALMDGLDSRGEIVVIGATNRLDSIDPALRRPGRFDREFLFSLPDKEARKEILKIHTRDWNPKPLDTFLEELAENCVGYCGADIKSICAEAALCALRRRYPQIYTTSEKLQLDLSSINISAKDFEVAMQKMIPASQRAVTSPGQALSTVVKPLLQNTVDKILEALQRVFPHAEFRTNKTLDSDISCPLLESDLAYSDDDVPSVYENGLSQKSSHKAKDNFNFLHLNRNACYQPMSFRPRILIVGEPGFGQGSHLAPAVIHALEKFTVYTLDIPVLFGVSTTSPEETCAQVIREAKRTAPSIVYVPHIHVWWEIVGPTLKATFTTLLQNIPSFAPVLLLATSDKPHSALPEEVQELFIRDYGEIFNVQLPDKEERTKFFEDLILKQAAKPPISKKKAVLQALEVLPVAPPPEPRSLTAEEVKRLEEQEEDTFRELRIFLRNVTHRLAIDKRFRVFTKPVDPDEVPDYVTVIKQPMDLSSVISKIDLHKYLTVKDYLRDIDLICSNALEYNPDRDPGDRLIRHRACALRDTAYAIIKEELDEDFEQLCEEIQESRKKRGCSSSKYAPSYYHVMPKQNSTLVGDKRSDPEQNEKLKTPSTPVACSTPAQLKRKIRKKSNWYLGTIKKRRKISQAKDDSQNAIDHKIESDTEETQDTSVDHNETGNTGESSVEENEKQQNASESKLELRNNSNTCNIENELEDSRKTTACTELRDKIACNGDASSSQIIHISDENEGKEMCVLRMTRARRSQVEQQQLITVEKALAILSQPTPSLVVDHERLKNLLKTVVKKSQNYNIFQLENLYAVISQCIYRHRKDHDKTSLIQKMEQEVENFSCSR

[3] = molecular target: T1, ATPase family AAA domain-containing protein 2; assay: Inhibition of GST-ATAD2 BD (951 to 1132 residues) (unknown origin) expressed in Escherichia coli BL21 (DE3) and biotinylated tetra-acetylated histone H4 peptides as substrate incubated for 30 mins by TR-FRET assay
Homo sapiens = organism: Homo sapiens; assay: Selectivity ratio of IC50 for Inhibition of […] GST-ATAD2 BD (981 to 1108 residues) (unknown origin) expressed in Escherichia coli BL21 (DE3) to IC50 for Halo-tagged Histone H3.3 from Nanoluc-ATAD2 BD ([…] residues) (unknown origin) transfected in human HCT116 cells
[4] = molecular target: T1, ATPase family AAA domain-containing protein 2; assay: Displacement of Halo-tagged Histone H3.3 from Nanoluc-ATAD2A BD (962 to 1119 residues) (unknown origin) transfected in human HCT116 cells incubated for 18 hrs by NanoBRET assay; assay type: cell-based, HCT-116
[5] = molecular target: T2, Bromodomain-containing protein 4 (Homo sapiens, UniProt O60885); assay: Displacement of Halo-tagged Histone H3.3 from Nanoluc-BRD4 BD1/BD2 (44 to 460 residues) (unknown origin) transfected in human HCT116 cells incubated for 18 hrs by NanoBRET assay; assay type: cell-based, HCT-116
[6] = molecular target: T2, Bromodomain-containing protein 4; assay: Displacement of Alexafluor 647-JQ1 from GST-BRD4 BD1 BD2 (44 to 460 residues) (unknown origin) incubated for 60 mins by fluorescence polarization assay
[7] = molecular target: T1, ATPase family AAA domain-containing protein 2; assay: Displacement of Halo-tagged Histone H3.3 from Nanoluc-ATAD2 BD (962 to 1119 residues) (unknown origin) transfected in human HCT116 cells incubated for 18 hrs in presence of efflux inhibitor verapamil by NanoBRET assay; assay type: cell-based, HCT-116
[8] = molecular target: T1, ATPase family AAA domain-containing protein 2; assay: Displacement of Halo-tagged Histone H3.3 from Nanoluc-ATAD2 BD (962 to 1119 residues) (unknown origin) transfected in human HCT116 cells incubated for 18 hrs in presence of efflux inhibitor reversan by NanoBRET assay; assay type: cell-based, HCT-116
[9] = molecular target: T1, ATPase family AAA domain-containing protein 2; assay: Displacement of Halo-tagged Histone H3.3 from Nanoluc-ATAD2 BD (962 to 1119 residues) (unknown origin) transfected in human HCT116 cells incubated for 18 hrs in presence of efflux inhibitor elacridar by NanoBRET assay; assay type: cell-based, HCT-116
[10] = molecular target: T1, ATPase family AAA domain-containing protein 2; assay: Inhibition of GST-ATAD2 BD (981 to 1108 residues) (unknown origin) expressed in Escherichia coli BL21 (DE3) and biotinylated tetra-acetylated histone H4 peptides as substrate incubated for 30 mins by TR-FRET assay
MDA-MB-231 = assay: Antiproliferative activity against human MDA-MB-231 cells assessed as inhibition of proliferation after 72 hrs; assay type: functional

CNc1cc(C(=O)N2[C@H]3Cc4ccccc4[C@@H]2CNC3=O)cn(C)c1=O
logD [1]: 0.5 | IC50 [2]: > 25.1 µM | IC50 [3]: 11.8 µM

Cc1nnc2c(NCCCN3CCCC3)cc(C(=O)N3[C@@H]4c5ccccc5C[C@H]3C(=O)N[C@@H]4C(C)C)nn12
logD [1]: 0.5 | IC50 [2]: > 25.1 µM | Ratio IC50 (Homo sapiens): 126 | IC50 [3]: 0.014 µM | IC50 [4]: 2 µM | IC50 [5]: 25.1 µM | IC50 [6]: 25.1 µM

Cc1cc(C(=O)N2[C@H]3Cc4ccccc4[C@@H]2CNC3=O)c[nH]c1=O
logD [1]: 0.3 | IC50 [2]: > 25.1 µM | IC50 [3]: 26.3 µM | IC50 [6]: > 31.6 µM

Cc1nnc2c(NC3CCN(C)CC3)nc(C(=O)N3[C@H]4Cc5ccccc5[C@@H]3CNC4=O)cn12
logD [1]: -0.3 | IC50 [3]: > 20 µM

Cc1nnc2c(NC3CCN(CC(C)(F)F)CC3)cc(C(=O)N3[C@@H]4c5ccccc5C[C@H]3C(=O)N[C@@H]4C(C)C)nn12
logD [1]: 3 | IC50 [2]: > 25.1 µM | Ratio IC50 (Homo sapiens): 25 | IC50 [3]: 0.022 µM | IC50 [4]: 0.501 µM | IC50 [7]: 0.501 µM | IC50 [8]: 0.501 µM | IC50 [5]: 50.1 µM | IC50 [9]: 0.501 µM | IC50 [6]: > 31.6 µM

Cc1nnc2c(NCCCN3CCC(F)(F)CC3)cc(C(=O)N3[C@@H]4c5ccccc5C[C@H]3C(=O)N[C@@H]4C(C)C)nn12
logD [1]: 3 | IC50 [2]: > 25.1 µM | Ratio IC50 (Homo sapiens): 63 | IC50 [3]: 0.02 µM | IC50 [4]: 1.26 µM | IC50 [5]: 31.6 µM | IC50 [6]: > 31.6 µM

Cn1cc(C(=O)N2[C@H]3Cc4ccccc4[C@@H]2CNC3=O)c2cc[nH]c2c1=O
logD [1]: 0.7 | IC50 [2]: > 25.1 µM | IC50 [3]: 1.48 µM | IC50 [6]: 15.8 µM

Cc1nnc2c(NCCCN3CCCC3)cc(C(=O)N3[C@H]4Cc5ccccc5[C@@H]3CNC4=O)nn12
logD [1]: -0.3 | IC50 [2]: > 25.1 µM | IC50 [3]: 0.041 µM | IC50 [6]: > 31.6 µM

Cc1nnc2c(NC3CCN(C)CC3)cc(C(=O)N3[C@H]4Cc5ccccc5[C@@H]3CNC4=O)cn12
logD [1]: -0.5 | IC50 [2]: > 25.1 µM | IC50 [3]: 0.37 µM | IC50 [6]: > 31.6 µM

CC1=C(C#N)c2nc(N)c(C#N)c(C)c2/C1=C\c1ccc(-c2cc(C(=O)O)ccc2Cl)o1
IC50 [10]: 3.16 µM | GI50 (MDA-MB-231): 1 µM

Cn1cc(C(=O)N2[C@H]3Cc4ccccc4[C@@H]2CNC3=O)c2c([nH]c3ccccc32)c1=O
logD [1]: 2 | IC50 [2]: > 25.1 µM | IC50 [3]: 0.42 µM | IC50 [6]: 7.94 µM

Cc1nnc2c(N)cc(C(=O)N3[C@H]4Cc5ccccc5[C@@H]3CNC4=O)cn12
logD [1]: 0.1 | IC50 [2]: > 25.1 µM | IC50 [3]: 6.08 µM | IC50 [6]: > 31.6 µM

C[C@H]1NC(=O)[C@@H]2Cc3ccccc3[C@H]1N2C(=O)c1cn(C)c(=O)c2[nH]c3ccccc3c12
logD [1]: 1.9 | IC50 [2]: > 25.1 µM | IC50 [3]: 0.21 µM | IC50 [6]: 31.6 µM

Cc1nnc2c(NC3CCN(C)CC3)cc(C(=O)N3[C@H]4Cc5ccccc5[C@@H]3CNC4=O)nn12
logD [1]: 0.2 | IC50 [2]: > 25.1 µM | IC50 [10]: 0.0316 µM | Ratio IC50 (Homo sapiens): 79 | IC50 [3]: 0.3 µM | IC50 [4]: 2.51 µM | IC50 [5]: 31.6 µM | IC50 [6]: > 31.6 µM

Cc1nnc2c(N)cc(C(=O)N3[C@H]4Cc5ccccc5[C@@H]3CNC4=O)nn12
logD [1]: 0.8 | IC50 [2]: > 25.1 µM | IC50 [3]: 0.28 µM | IC50 [6]: 25.1 µM

COc1cc(C(=O)N2C3Cc4ccccc4C2CNC3=O)cc(OC)c1O (stereo unspecified)
logD [1]: 0.9 | IC50 [2]: > 25.1 µM | IC50 [3]: 20.2 µM | IC50 [6]: > 31.6 µM

COc1cc(C(=O)N2[C@H]3Cc4ccccc4[C@@H]2CNC3=O)cc(OC)c1O
logD [1]: 0.9 | IC50 [2]: > 25.1 µM | IC50 [3]: 21.2 µM | IC50 [6]: > 31.6 µM

COc1cc(C(=O)N2[C@H]3Cc4ccccc4[C@@H]2CNC3=O)cc2c(C)n[nH]c12
logD [1]: 2 | IC50 [2]: > 251 µM | IC50 [3]: 4.88 µM | IC50 [6]: > 31.6 µM

CO[C@H]1CNC[C@@H](OCC2CCC(F)(F)CC2)[C@@H]1Nc1ncc(-c2cncc(C)c2)c2cc(C)c(=O)[nH]c12
logD [1]: 2.7

CC(C)[C@H]1NC(=O)[C@@H]2Cc3ccccc3[C@H]1N2C(=O)c1cn(C)c(=O)c2[nH]c3ccccc3c12
logD [1]: 2.6 | IC50 [2]: > 25.1 µM | IC50 [3]: 0.44 µM | IC50 [6]: > 31.6 µM

CN1C[C@H]2c3ccccc3C[C@@H](C1=O)N2C(=O)c1cn(C)c(=O)c2[nH]ccc12
logD [1]: 0.9 | IC50 [2]: > 25.1 µM | IC50 [3]: 3.56 µM | IC50 [6]: 7.94 µM

Cn1cc(C(=O)N2[C@H]3Cc4ccccc4[C@@H]2CNC3=O)cc(N)c1=O
logD [1]: 0 | IC50 [2]: > 25.1 µM | IC50 [3]: 34.3 µM | IC50 [6]: > 31.6 µM

C[C@H]1NC(=O)[C@@H]2Cc3ccccc3[C@H]1N2C(=O)c1cn(C)c(=O)c2[nH]c3ccc(OC(F)(F)F)cc3c12
logD [1]: 3.4 | IC50 [2]: > 25.1 µM | Ratio IC50 (Homo sapiens): 16 | IC50 [3]: 0.078 µM | IC50 [4]: 1.26 µM | IC50 [7]: 0.501 µM | IC50 [8]: 0.794 µM | IC50 [5]: 126 µM | IC50 [9]: 0.794 µM | IC50 [6]: > 31.6 µM
